Where only a bound is given, the exact number is not on record here.

From patent publication US9884063B2, “Amido-substituted azole compounds” (Bayer Pharma Aktiengesellschaft, priority 2014, dated 2018) come the findings set out here.

The test system of assay [1] is HEK293 FOP control reporter cell line. Nature of the assay: HEK293 FOP Assay (FOP control vector luciferase reporter). Type of assay: cell-based. The settings on record: Homo sapiens. Summed up: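 Compound series 50 μM to 15 nM, 3.16-fold steps, were diluted in CAFTY buffer (pH 7.4, 2 mM Ca2+, 0.01% BSA) and tested alongside the TOP reporter line. Human Wnt-3a was added at 2500–5 ng/ml in two-fold steps. The control HEK293 line stably holds an FOP vector whose TCF elements are randomized and non-functional.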
(In a reporter assay the amount or activity of a reporter protein is the signal.)

The next assay addresses T1, TNKS2 (Homo sapiens, UniProt Q9H2K2).
T1 sequence (Q9H2K2 1-1166): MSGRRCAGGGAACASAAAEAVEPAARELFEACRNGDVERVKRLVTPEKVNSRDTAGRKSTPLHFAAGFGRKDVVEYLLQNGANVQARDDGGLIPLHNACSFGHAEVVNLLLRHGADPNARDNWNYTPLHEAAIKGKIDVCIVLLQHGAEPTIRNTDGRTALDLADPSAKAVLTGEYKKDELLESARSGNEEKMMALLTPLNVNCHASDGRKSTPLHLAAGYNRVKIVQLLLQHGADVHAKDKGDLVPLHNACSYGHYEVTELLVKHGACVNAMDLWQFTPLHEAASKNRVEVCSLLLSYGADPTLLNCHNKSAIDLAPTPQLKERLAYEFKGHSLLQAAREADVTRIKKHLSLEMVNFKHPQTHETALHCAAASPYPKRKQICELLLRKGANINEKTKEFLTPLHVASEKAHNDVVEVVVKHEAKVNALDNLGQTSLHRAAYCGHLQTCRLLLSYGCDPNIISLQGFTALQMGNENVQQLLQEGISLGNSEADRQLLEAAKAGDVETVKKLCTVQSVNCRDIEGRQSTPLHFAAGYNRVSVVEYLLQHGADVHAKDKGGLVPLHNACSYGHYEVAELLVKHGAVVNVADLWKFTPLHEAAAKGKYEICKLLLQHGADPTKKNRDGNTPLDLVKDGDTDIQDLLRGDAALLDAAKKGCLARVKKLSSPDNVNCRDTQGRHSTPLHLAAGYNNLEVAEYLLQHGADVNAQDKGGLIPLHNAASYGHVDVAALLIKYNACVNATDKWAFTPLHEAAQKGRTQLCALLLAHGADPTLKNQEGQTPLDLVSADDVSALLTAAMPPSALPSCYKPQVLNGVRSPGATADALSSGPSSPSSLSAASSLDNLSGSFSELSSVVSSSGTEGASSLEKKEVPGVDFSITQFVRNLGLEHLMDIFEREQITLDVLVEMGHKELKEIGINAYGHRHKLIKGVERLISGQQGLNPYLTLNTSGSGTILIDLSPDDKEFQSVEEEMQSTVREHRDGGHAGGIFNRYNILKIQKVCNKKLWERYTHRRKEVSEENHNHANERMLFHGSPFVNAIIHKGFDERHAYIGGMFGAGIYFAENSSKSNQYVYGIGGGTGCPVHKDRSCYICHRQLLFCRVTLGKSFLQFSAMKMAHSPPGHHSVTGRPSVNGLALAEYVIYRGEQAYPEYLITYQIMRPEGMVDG
Nature of the assay: TNKS2 Assay 1 (TNKS2 Histone Ribosylation Assay Kit, biotin-labeled NAD+). Type of assay: biochemical. The note with it: chemiluminescent readout, 384 well. How it is done:
The potency of the compounds according to the invention was assessed applying an in vitro inhibition assay. The TNKS2 catalyzed NAD^+-dependent ribosylation of a suitable protein substrate was detected using a commercially available biotin/streptavidin binding based assay format [TNKS2 Histone Ribosylation Assay Kit (Biotin-labeled NAD+), Catalog #80572; BPS Bioscience, San Diego, USA]. Here, the incorporation of a biotin-labeled NAD+ during the TNKS2 catalyzed ribosylation reaction was detected with a streptavidin-HRP coupled chemi-luminescent readout. The intensity of the readout signal is proportional to the incorporated NAD^+. Inhibition of TNKS2 leads to a decreased incorporation of NAD^+ and consequently to a lower readout signal intensity. The concentration of a test compound which inhibits the enzyme activity by 50% (corresponds to half of the normed readout signal intensity) is reported as IC50.
The assay was conducted in a 384 well MTP format according to the manufacturer's protocol [bpsbioscience.com/poly-adp-ribose-polymerase/assay-kit/tnks2-histone-ribosylation-assay-kit-biotin-labeled-nad-80572 referencing: Brown, J. A., Marala, R. B. J. Pharmacol. Toxicol. Methods 2002 47:137-41]. and using a BMG Pherastar MTP reader [BMG-Labtech, Offenburg, Germany].

[2] abbreviates: HEK293 FOP control reporter cell line, 16 hours incubation, compound dilution series 50 μM to 15 nM.
[3] abbreviates: HEK293 FOP control reporter cells, 16 hours, luciferase, dilution series from 50 μM.

`CC1CCN(CCNC(=O)c2nc[nH]c2C(=O)Nc2ccc(NC(=O)c3ccc(F)cc3Cl)cc2)CC1` [Example 126, N^5-{4-[(2-chloro-4-fluorobenzoyl)amino]phenyl}-N^4-[2-(4-methylpiperidin-1-yl)ethyl]-1H-imidazole-4,5-dicarboxamide] registered an IC50 in assay [1] (setting [2]) of 27 µM. That is a double-digit micromolar value.

`CNC(=O)c1nc[nH]c1C(=O)Nc1ccc(NC(=O)c2ccc(N(C)C)cc2Cl)cc1` [Example 4, N^5-(4-{[2-chloro-4-(dimethylamino)benzoyl]amino}phenyl)-N^4-methyl-1H-imidazole-4,5-dicarboxamide]: the IC50 came out at 42 µM in assay [1] (setting [2]), 42 µM in assay [1] (setting [3]), 0.09 µM at TNKS2 (Table 2) and 0.09 µM against TNKS2 (first table).

Regarding `CNC(=O)c1nc[nH]c1C(=O)Nc1ccc(NC(=O)c2ccc(N3CCCC3)cc2F)cc1` [Example 3, N^5-(4-{[2-fluoro-4-(pyrrolidin-1-yl)benzoyl]amino}phenyl)-N^4-methyl-1H-imidazole-4,5-dicarboxamide], the IC50 was not below 50 µM in assay [1] (setting [3]) and 30 µM at TNKS2 (Table 2).

Consider `CNC(=O)c1nc[nH]c1C(=O)Nc1ccc(NC(=O)c2cccc(Cl)c2Cl)cc1` [Example 1, N^5-{4-[(2,3-dichlorobenzoyl)amino]phenyl}-N^4-methyl-1H-imidazole-4,5-dicarboxamide], for which the IC50 in assay [1] (setting [2]) came to 24 µM; in assay [1] (setting [3]), 25 µM; against TNKS2 (Table 2) it was 0.02 µM; on TNKS2 (first table), 0.02 µM.

Turning to `CNC(=O)c1nc[nH]c1C(=O)Nc1ccc(NC(=O)c2ccccc2Cl)cc1` [Example 27, N^5-{4-[(2-chlorobenzoyl)amino]phenyl}-N^4-methyl-1H-imidazole-4,5-dicarboxamide], the IC50 in assay [1] (setting [3]) is not below 50 µM; against TNKS2 (Table 2), 0.04 µM; against TNKS2 (first table), 0.04 µM.

In assay [1] (setting [2]), `O=C(Nc1ccc(NC(=O)c2nc[nH]c2C(=O)NCCCCN2CCCCC2)cc1)c1ccccc1Cl` [Example 189, N^4-{4-[(2-chlorobenzoyl)amino]phenyl}-N^5-[4-(piperidin-1-yl)butyl]-1H-imidazole-4,5-dicarboxamide] showed an IC50 of 28 µM. This lies in the double-digit micromolar range.

The compound `CC(C)(C)CNC(=O)c1[nH]cnc1C(=O)Nc1ccc(NC(=O)c2ccccc2Cl)cc1` [Example 148, N^4-{4-[(2-chlorobenzoyl)amino]phenyl}-N^5-(2,2-dimethylpropyl)-1H-imidazole-4,5-dicarboxamide] came in with an IC50 in assay [1] (setting [2]) of 16 µM. Compared with the last compound, the IC50 is about 1.8-fold lower.

`O=C(Nc1ccc(NC(=O)c2nc[nH]c2C(=O)NC2CCOC2)cc1)c1ccc(F)cc1Cl` (stereo not shown) [Example 236, N^4-{4-[(2-chloro-4-fluorobenzoyl)amino]phenyl}-N^5-(tetrahydrofuran-3-yl)-1H-imidazole-4,5-dicarboxamide]: in assay [1] (setting [2]), the IC50 worked out at 34 µM.

Turning to `O=C(NCCN1CCCCC1)c1nc[nH]c1C(=O)Nc1ccc(NC(=O)c2c(F)cc(F)cc2Cl)cc1` [Example 119, N^5-{4-[(2-chloro-4,6-difluorobenzoyl)amino]phenyl}-N^4-[2-(piperidin-1-yl)ethyl]-1H-imidazole-4,5-dicarboxamide], in assay [1] (setting [2]), the IC50 was found to be 20 µM.

`O=C(Nc1ccc(NC(=O)c2ocnc2C(=O)NCCN2CCC(F)(F)CC2)cc1)c1ccc(F)cc1Cl` [Example 218, N^5-{4-[(2-chloro-4-fluorobenzoyl)amino]phenyl}-N^4-[2-(4,4-difluoropiperidin-1-yl)ethyl]-1,3-oxazole-4,5-dicarboxamide]: half-maximal inhibition in assay [1] (setting [2]) (IC50) required 31.5 µM.

In turn, `O=C(Nc1ccc(NC(=O)c2nc[nH]c2C(=O)NCCCN2CCOCC2)cc1)c1ccccc1Cl` [Example 200, N^4-{4-[(2-chlorobenzoyl)amino]phenyl}-N^5-[3-(morpholin-4-yl)propyl]-1H-imidazole-4,5-dicarboxamide] registered a half-inhibitory concentration (IC50) in assay [1] (setting [2]) of 20 µM.

Compound `CC(C)(CNC(=O)c1[nH]cnc1C(=O)Nc1ccc(NC(=O)c2ccc(F)cc2)cc1)N1CCCCC1` [Example 209, N^4-{4-[(4-fluorobenzoyl)amino]phenyl}-N^5-[2-methyl-2-(piperidin-1-yl)propyl]-1H-imidazole-4,5-dicarboxamide] displayed an IC50 in assay [1] (setting [2]) of 22 µM.

For the compound `CN1CCN(C(C)(C)CNC(=O)c2[nH]cnc2C(=O)Nc2ccc(NC(=O)c3ccc(F)cc3Cl)cc2)CC1` [Example 187, N^4-{4-[(2-chloro-4-fluorobenzoyl)amino]phenyl}-N^5-[2-methyl-2-(4-methylpiperazin-1-yl)propyl]-1H-imidazole-4,5-dicarboxamide], in assay [1] (setting [2]), half-maximal inhibition (IC50) required 28 µM.

In assay [1] (setting [2]), `CC(C)(CNC(=O)c1[nH]cnc1C(=O)Nc1ccc(NC(=O)c2ccccc2Cl)cc1)N1CCCCC1` [Example 165, N^4-{4-[(2-chlorobenzoyl)amino]phenyl}-N^5-[2-methyl-2-(piperidin-1-yl)propyl]-1H-imidazole-4,5-dicarboxamide] returned an IC50 of 31 µM.

Consider `CNC(=O)c1nc[nH]c1C(=O)Nc1ccc(NC(=O)c2cc(OCCN3CCCCC3)ccc2Cl)cc1` [Example 125, N^5-[4-({2-chloro-5-[2-(piperidin-1-yl)ethoxy]benzoyl}amino)phenyl]-N^4-methyl-1H-imidazole-4,5-dicarboxamide], for which the IC50 in assay [1] (setting [2]) was 15 µM.

Compound `CNC(=O)c1nc[nH]c1C(=O)Nc1ccc(NC(=O)c2ncccc2Cl)cc1` [Example 247, N^5-(4-{[(3-chloropyridin-2-yl)carbonyl]amino}phenyl)-N^4-methyl-1H-imidazole-4,5-dicarboxamide] had an IC50 in assay [1] (setting [2]) of 35 µM. Against the preceding compound, the IC50 is about 2.3-fold higher.

The compound `CC(C)CNC(=O)c1[nH]cnc1C(=O)Nc1ccc(NC(=O)c2ccc(F)cc2Cl)cc1` [Example 147, N^4-{4-[(2-chloro-4-fluorobenzoyl)amino]phenyl}-N^5-isobutyl-1H-imidazole-4,5-dicarboxamide] came in with an IC50 in assay [1] (setting [2]) of 6 µM.

In assay [1] (setting [2]), `CCNC(=O)c1nc[nH]c1C(=O)Nc1ccc(NC(=O)c2ccc(OCC)cc2Cl)cc1` [Example 259, N^5-{4-[(2-chloro-4-ethoxybenzoyl)amino]phenyl}-N^4-ethyl-1H-imidazole-4,5-dicarboxamide] displayed an IC50 of 33 µM.

In assay [1] (setting [2]), `O=C(Nc1ccc(NC(=O)c2nc[nH]c2C(=O)NCCN2CCCCC2)cc1)c1ccc(F)cc1Br` [Example 216, N^4-{4-[(2-bromo-4-fluorobenzoyl)amino]phenyl}-N^5-[2-(piperidin-1-yl)ethyl]-1H-imidazole-4,5-dicarboxamide] showed a half-maximal inhibitory concentration (IC50) of 11 µM.

In the case of `CC(C)(CN1CCOCC1)NC(=O)c1[nH]cnc1C(=O)Nc1ccc(NC(=O)c2ccc(F)cc2)cc1` [Example 180, N^4-{4-[(4-fluorobenzoyl)amino]phenyl}-N^5-[2-methyl-1-(morpholin-4-yl)propan-2-yl]-1H-imidazole-4,5-dicarboxamide], the IC50 in assay [1] (setting [2]) worked out at 37 µM.

`CC1CCCN(CCNC(=O)c2[nH]cnc2C(=O)Nc2ccc(NC(=O)c3ccc(F)cc3Cl)cc2)C1` (stereo not shown) [Example 208, N^4-{4-[(2-chloro-4-fluorobenzoyl)amino]phenyl}-N^5-[2-(3-methylpiperidin-1-yl)ethyl]-1H-imidazole-4,5-dicarboxamide] gave an IC50 in assay [1] (setting [2]) of 23 µM.

In assay [1] (setting [2]), `CC(C)(CN1CCCCC1)NC(=O)c1[nH]cnc1C(=O)Nc1ccc(NC(=O)c2ccccc2Cl)cc1` [Example 171, N^4-{4-[(2-chlorobenzoyl)amino]phenyl}-N^5-[2-methyl-1-(piperidin-1-yl)propan-2-yl]-1H-imidazole-4,5-dicarboxamide] displayed an IC50 of 6.5 µM.

For orientation: IC50 means the point on the concentration scale where inhibition reaches its midpoint. Low readings indicate higher potency, high ones lower potency.
